One assay relates to maternal Chd2 locus. Nature of the assay: Donor-free interchromosomal homologous recombination (ICHR) in IVF-derived Chd2^R1684H/+ embryos. In kind it is cell-based, mouse. The method, then:
tracrRNA, crRNAs, and ssODNs were synthesized by Integrated DNA Technologies (TABLE 1). All injection mixtures were prepared in a final volume of 50 μL according to the following methodology: Using RNase-free water, reagents, and consumables, crRNA (final concentration 0.61 μM), tracrRNA (final concentration 0.61 μM), and ultrapure Tris-HCl, pH 7.39 (final concentration 10 mM, ThermoFisher) were mixed and incubated at 95° C. for 5 minutes. The mixtures were cooled to room temperature for 10 minutes on the benchtop, and then, EnGen Cas9-NLS S. pyogenes (New England Biolabs) was added to a final concentration of 30 ng/μL. The mixtures were incubated at 37° C. for 15 minutes before adding any remaining components: ssODN (final concentration 3 ng/μL or 30 ng/μL), RAD51 (Creative Biomart, final concentration 10 ng/μL). Injection mixtures were stored on ice and briefly heated to 37° C. prior to injection. For experiments utilizing RS-1, embryos were cultured in KSOM-AA (EMD Millipore MR-121-D) with […] RS-1 (Sigma) dissolved in DMSO or DMSO (Sigma, 1:1000) for 24 hours, washed, and cultured in EmbryoMax FHM HEPES Buffered Medium (Sigma) until collection for genotyping.
For experiments using wildtype recombinant proteins, the following proteins were used: RAD51 (Creative Biomart RAD51-134H), USP1/WDR48 (Creative Biomart USP1&WDR48-1067H), BCCIP (Origene TP303061), XRCC1 (TP304952), XRCC4 (Origene TP312684), DMC1 (Origene TP318311). For experiments using mutant RAD51, custom RAD51 preparations were produced by Creative Biomart according to their standard protocol for producing the wildtype RAD51 used in all other experiments. Mutant DNA sequences used for cloning are described in TABLE 2. All RAD51 mutants were modeled in human RAD51 transcript variant 4 (NCBI accession NM_001164269), as this is the transcript variant of the wildtype RAD51-134H protein used in all other experiments.
In vitro fertilization was performed using FERTIUP® Mouse Preincubation Medium and CARD MEDIA (Kyudo Company) according to the manufacturer's protocol. Non-virgin Chd2^R1684H/R1684H males that were >8 weeks old were used as sperm donors. Following IVF, embryos were cultured for 8 hours and then injected using the PNI protocol described below.
For all experiments except those described in FIG. 6, the male pronucleus was injected. Injections performed for the CPI portion of FIG. 6 were targeted to the cytoplasm. All microinjections were performed using a Narishige Micromanipulator, Nikon Eclipse TE2000-S microscope, and Eppendorf 5242 microinjector. Individual zygotes were injected with 1-2 pL of injection mixture using an “automatic” injection mode set according to needle size and adjusted for clear increase in pronuclear volume. Following injections, cells were cultured in KSOM-AA until collection for genotyping. For experiments giving rise to F0 animals, embryos were surgically implanted into pseudopregnant CD-1 females (Charles River Laboratories, Strain Code 022) 24-hours post-injection and allowed to develop normally until natural birth.
Embryos were collected at morula-to-blastocyst stage in 4 μL nuclease-free water. After collection, 4 μL of 2× embryo digestion buffer was added to each sample (final concentrations: 125 μg/mL proteinase K, 100 mM Tris-HCl pH 8.0, 100 mM KCl, 0.02% gelatin, 0.45% Tween-20, 60 μg/mL yeast tRNA) and embryos were lysed for 1 hour at 56° C. Proteinase K was inactivated via incubation at 95° C. for 10 minutes and DNA was stored at −20° C. until use.
Chd2^R1684H genotyping was performed via a two-step, nested approach. Except for experiments described in FIGS. 3A-3G, all 8 μL of embryo DNA were used as input for the initial, long round of PCR. Genotyping of mouse pups and adult animals was performed using 2 μL of purified tail DNA. For all embryo genotyping, reactions mixtures were set up in a UV-sterilized laminar flow hood using sterile reagents and filter tips to avoid contamination. […]

The next assay concerns the target T1, Cas9 (Streptococcus pyogenes serotype M1, UniProt Q99ZW2).
T1 construct: NLS (nuclear localization signal); purchased New England Biolabs
Kind of assay: In vitro Cas9 digestion assay. To be noted: 10 ng/μL protein co-incubated, PCR amplimer of the Chd2^R1684H locus, 37° C. 1 hour. In kind it is biochemical, S. pyogenes. The method, then:
Wildtype or Chd2^R1684H/R1684H genomic DNA was used as input for PCR using the conditions described above and the primers specified in FIGS. 10A-10D and FIG. 12. After confirmation of a single band via gel electrophoresis, the PCR reactions were purified using the DNA Clean & Concentrator kit (Zymo) according to the manufacturer's instructions. crRNA and tracrRNA were diluted 1 μM in nuclease-free Duplex Buffer (IDT) and incubated at 95° C. for 5 minutes before being allowed to cool to room temperature on the bench. Digestion mixtures were made in separate tubes by combining nuclease-free water, 10× Cas9 Nuclease Reaction Buffer (final concentration 1×, New England Biolabs), 1 μL of the cooled crRNA/tracrRNA duplex, and, if necessary, 1 μL of EnGen Cas9 NLS, S. pyogenes (New England Biolabs). These mixtures were heated to 37° C. for 10 minutes before adding 250 ng PCR product and, if necessary, RAD51 G151D (10 ng/μL final concentration, custom-produced by Creative Biomart) or BCCIP (10 ng/μL final concentration, Origene TP303061). Digestion was performed at 37° C. for 1 hour, Cas9 was denatured at 95° C., 6× Purple Gel Loading Dye (New England Biolabs) was added to a final concentration of 1×, and the samples were allowed to passively cool to room temperature. […]

Where [1] appears, read: co-injected with Cas9/crRNA/tracrRNA, no donor.
[2] abbreviates: compared to embryos injected with wildtype RAD51.

Data on two substances can be found in patent US11643670B2, “Methods of enhancing chromosomal homologous recombination” (Massachusetts Institute of Technology, priority 2018, dated 2023).

T1 sequence (Q99ZW2 whole entry): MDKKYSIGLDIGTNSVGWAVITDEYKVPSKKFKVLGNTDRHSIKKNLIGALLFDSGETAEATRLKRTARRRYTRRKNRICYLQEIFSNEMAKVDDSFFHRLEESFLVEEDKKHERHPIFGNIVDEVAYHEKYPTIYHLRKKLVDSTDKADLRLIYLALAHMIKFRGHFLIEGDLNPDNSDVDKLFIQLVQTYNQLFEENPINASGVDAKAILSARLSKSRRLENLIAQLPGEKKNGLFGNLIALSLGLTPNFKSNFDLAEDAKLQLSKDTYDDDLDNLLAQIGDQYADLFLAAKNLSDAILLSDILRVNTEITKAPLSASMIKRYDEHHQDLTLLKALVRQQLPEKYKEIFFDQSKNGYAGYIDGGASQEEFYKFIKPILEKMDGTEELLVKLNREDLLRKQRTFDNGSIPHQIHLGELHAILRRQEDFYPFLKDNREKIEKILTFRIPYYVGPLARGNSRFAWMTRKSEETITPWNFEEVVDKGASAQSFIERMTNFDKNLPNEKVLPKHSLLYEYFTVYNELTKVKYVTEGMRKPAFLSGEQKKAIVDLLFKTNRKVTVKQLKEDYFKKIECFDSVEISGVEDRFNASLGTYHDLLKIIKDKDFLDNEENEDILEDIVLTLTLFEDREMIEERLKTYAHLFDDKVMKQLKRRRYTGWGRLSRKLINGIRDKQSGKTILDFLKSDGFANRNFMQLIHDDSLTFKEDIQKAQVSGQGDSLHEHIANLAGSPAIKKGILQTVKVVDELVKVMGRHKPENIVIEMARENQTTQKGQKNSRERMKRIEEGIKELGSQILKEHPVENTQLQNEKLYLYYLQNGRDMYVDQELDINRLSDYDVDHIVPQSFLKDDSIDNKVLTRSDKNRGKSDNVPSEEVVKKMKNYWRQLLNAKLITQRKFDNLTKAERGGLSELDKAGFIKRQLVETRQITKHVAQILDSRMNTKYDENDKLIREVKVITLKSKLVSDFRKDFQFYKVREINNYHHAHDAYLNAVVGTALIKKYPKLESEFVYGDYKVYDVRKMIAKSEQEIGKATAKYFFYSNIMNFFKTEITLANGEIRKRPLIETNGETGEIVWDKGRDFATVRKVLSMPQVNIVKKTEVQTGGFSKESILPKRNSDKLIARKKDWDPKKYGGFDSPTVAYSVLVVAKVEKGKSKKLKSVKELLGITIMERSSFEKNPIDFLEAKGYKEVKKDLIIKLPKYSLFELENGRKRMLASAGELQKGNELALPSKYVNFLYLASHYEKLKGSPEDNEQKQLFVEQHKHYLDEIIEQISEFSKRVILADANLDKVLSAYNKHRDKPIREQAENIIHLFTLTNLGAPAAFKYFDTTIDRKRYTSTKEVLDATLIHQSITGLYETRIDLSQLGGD

“BCCIP: recombinant BRCA2-interacting protein BCCIP (Origene TP303061)”: in the assay with maternal Chd2 locus, the “efficiency of ICHR stimulation” value is reported as around 100%, the “embryos with mosaic ICHR that were mosaic with an indel” value is 1/14 and the “indel-to-ICHR ratio (level)” value is reported as “near zero”. For the same substance, in the assay with maternal Chd2 locus (setting [1]), the “ICHR rate compared with baseline (Cas9-only embryos)” value was “significantly stronger effect on ICHR rates than USP1/WDR48” and the “edited embryos showing ICHR” value stood at 95%. In addition, in the assay on maternal Chd2 locus (compared to control embryos), the indel-to-ICHR ratio result is on record as “drastic decrease” and the overall indel rate result is on record as “drastic decrease”. Besides, in the assay with maternal Chd2 locus (setting [2]), the indel-to-ICHR ratio entry is listed as “significant decreases” and the overall indel rate result is reported as “significant decreases”. Also, the “effect on mosaicism in embryos exhibiting ICHR” value with maternal Chd2 locus (compared to enhancer-free embryos) was “strong effect on mosaicism”. Besides, in the assay with Cas9, the “direct inhibition of Cas9 nuclease activity” value is “not due to direct inhibition of Cas9 activity”.
Take “G151D: recombinant RAD51 gain-of-function mutant with increased strand exchange activity, SEQ ID NO: 8”: in the assay with Cas9, the “direct inhibition of Cas9 nuclease activity” value is “did not observe any direct inhibition of Cas9 activity”.
